Measured values reported in patent publication US10894255B2, “Leukocyte and microparticles fractionation using microfluidics” (Nanyang Technological University, priority 2015, dated 2021).

Assays:
Assay type in all cases: cell-based, human
[1] = tested on: DFF-purified neutrophils rolling on E-selectin; test: Microfluidic neutrophil rolling assay on E-selectin-coated microchannel; details: for Neutrophil rolling speed on E-selectin: DFF-sorted neutrophils treated with glucose 30 mM, TNF-α 10 ng/mL or PMA 1 μM, shear 2 dynecm^−2, compared with healthy neutrophils, P<0.005
From the text: In another aspect, the present invention also relates to a microfluidic flow channel, wherein its inner wall is coated with E-selectin. Such channel may have a length of at least 0.1 cm. Preferably, the channel has a length of 0.5-2 cm. The width may be at least 200 μm, preferably between 350-500 μm. The channel height may be at least 40 μm, preferably between 45-75 μm and more preferably the height is 60 μm. An example to determine the rolling speed by using an E-selectin coated channel is given below. Briefly, a straight microchannel (1 cm length by 400 μm width by 60 μm height) can be coated with E-selectin (50 μg/mL, Peprotech) for 1 h at 4° C. and blocked with 0.5% BSA in PBS for 30 min at room temperature. After blocking, the channel can be connected to a syringe loaded with 0.1% BSA in PBS to prime and wash away excess E-selectin in the channel. For rolling assay, CaCl2 (20 μM, Sigma-Aldrich) can be added to the DFF-purified neutrophils to facilitate the calcium-dependent interactions of neutrophil binding and rolling on E-selectin. ˜10-20 μL of DFF-purified neutrophils (˜10^6 cells/mL) can be loaded at the inlet reservoir and the syringe can be set to withdraw at 2.6 μL/min (˜2 dynecm^−2) to initiate neutrophil rolling. Phase contrast image can be captured for 30 s at the centre of the microchannel every 0.5 s interval (total of 61 frames) at 20× magnification using MetaMorph software (Molecular Devices). […] The neutrophils can then be washed at 1000×g for 4 min and resuspended to a concentration of ˜10^6 cells/mL with 20 μM CaCl2 for rolling assay.
To study neutrophil rolling phenotype on E-selectin, a straight microchannel (1 cm (l)×400 μm (w)×60 μm (h)) with recombinant human E-selectin (50 μg/mL) was coated to simulate flow conditions in post capillary venules (˜1-10 dynecm^−2). DFF-sorted neutrophils were pumped into the channel at physiological shear conditions (2 dynecm^−2) and timelapse imaging was used to capture neutrophil rolling. A MATLAB tracking algorithm was developed to track neutrophil rolling trajectories and speed measurement for high throughput single cell analysis. […] These differences in rolling phenotypes were further investigated by measuring neutrophil PSGL-1 expression, which is known to mediate leukocyte rolling on E-selectin, as well as CD11b, a Mac-1 integrin expressed on leukocytes that supports adhesion to E-selectin.
After having established that neutrophils from T2DM patients rolled faster on E-selectin as compared to healthy subjects, it was determined if these functional differences can be associated to clinical conditions by analyzing rolling speed frequencies in T2DM patients that are higher than the average rolling speed of healthy subjects (≥5 μm/sec). […]

[2] = tested on: PSGL-1 expression on neutrophils; test: Flow cytometric analysis of PSGL-1 expression on healthy and treated neutrophils; details: glucose 30 mM, TNF-α 10 ng/mL or PMA 1 μM treated vs healthy neutrophils; flow cytometry
Procedure: (§1) (A) Image overlay (60× magnification) from captured cell rolling videos highlight distinct differences in rolling trajectories between healthy and TNF-α-treated neutrophils. (B) Cumulative frequency curves of neutrophil rolling speed for healthy, glucose-treated (30 mM), TNF-α-treated (10 ng/mL) and PMA-treated (1 μM) neutrophils. […] Flow cytometric analysis of (C) PSGL-1 and (D) CD11b expression on healthy and treated neutrophils. Cells were incubated with mouse APC anti-human PSGL-1 IgG2a/mouse APC IgG2a isotype and FITC mouse anti-human CD11b (activated) IgG1/FITC mouse IgG1 isotype.
(§2) To study neutrophil rolling phenotype on E-selectin, a straight microchannel (1 cm (l)×400 μm (w)×60 μm (h)) with recombinant human E-selectin (50 μg/mL) was coated to simulate flow conditions in post capillary venules (˜1-10 dynecm^−2). DFF-sorted neutrophils were pumped into the channel at physiological shear conditions (2 dynecm^−2) and timelapse imaging was used to capture neutrophil rolling. A MATLAB tracking algorithm was developed to track neutrophil rolling trajectories and speed measurement for high throughput single cell analysis. […]

[3] = tested on: CD11b expression on neutrophils; test: Flow cytometric analysis of CD11b expression on healthy and treated neutrophils; details: glucose 30 mM, TNF-α 10 ng/mL or PMA 1 μM treated vs healthy neutrophils; flow cytometry
Procedure: as §1, §2

Compound | Neutrophil rolling speed on E-selectin [1] | PSGL-1 expression on neutrophils [2] | Neutrophil CD11b level [3] | Average rolling speed of drug-treated neutrophils ([1]; DFF-purified neutrophils of healthy subjects incubated with metformin 1 mM or pravastatin 20 μM for 1 h, vs untreated controls, all paired observations, P<0.05) | Neutrophil rolling trajectories on E-selectin ([1]; TNF-α-activated neutrophils vs healthy neutrophils (steady rolling in a straight path))
CCCCCCCCCCCCCC(=O)O[C@@H]1[C@@H](C)[C@@]2(O)[C@@H](C=C(CO)C[C@]3(O)C(=O)C(C)=C[C@@H]23)[C@@H]2C(C)(C)[C@]12OC(C)=O [PMA] | did not roll, but instead adhered firmly on E-selectin | downregulation was more significant | higher increase | – | –
CN(C)C(=N)N=C(N)N [metformin] | – | – | – | higher than controls | –
tumor necrosis factor alpha [TNF-α] | higher than healthy neutrophils | decreased | – | – | discontinuous with “flipping” motions
